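96-well plates; 48 h exposure; 5 concentrations. Endpoints by linear interpolation between flanking doses. Not reached: highest tested concentration assigned. Abbreviation: GI50, concentration required for 50% inhibition of growth.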 Active and inactive are the calls of the source. Cut-off read from the data, not from the text of the source: active = GI50 up to about 1.1 µM and inactive = higher.
What was measured:
Assay in all cases: DTP human tumour cell line panel, 48 h
EKVX = system: EKVX
LOX IMVI = system: LOX IMVI
HOP-92 = system: HOP-92
HT-29 = system: HT-29
786-0 = system: 786-0
ACHN = system: ACHN
OVCAR-4 = system: OVCAR-4
MOLT-4 = system: MOLT-4
CAKI-1 = system: CAKI-1
CCRF-CEM = system: CCRF-CEM
A498 = system: A498
TK-10 = system: TK-10
COLO 205 = system: COLO 205
SF-295 = system: SF-295
SK-MEL-28 = system: SK-MEL-28
SNB-75 = system: SNB-75

Row | Structure (SMILES) | GI50 (EKVX) | GI50 (LOX IMVI) | GI50 (HOP-92) | GI50 (HT-29) | GI50 (786-0) | GI50 (ACHN) | GI50 (OVCAR-4) | GI50 (MOLT-4) | GI50 (CAKI-1) | GI50 (CCRF-CEM) | GI50 (A498) | GI50 (TK-10) | GI50 (COLO 205) | GI50 (SF-295) | GI50 (SK-MEL-28) | GI50 (SNB-75)
1 | C#CCNC(=O)NCCCC(NC(C)=O)C(=O)NCc1ccccc1 (centres undefined) | > 100 µM (inactive) | > 100 µM (inactive) | > 100 µM (inactive) | > 100 µM (inactive) | > 100 µM (inactive) | > 100 µM (inactive) | > 100 µM (inactive) | > 100 µM (inactive) | > 100 µM (inactive) | > 100 µM (inactive) | > 100 µM (inactive) | > 100 µM (inactive) | > 100 µM (inactive) | > 100 µM (inactive) | > 100 µM (inactive) | > 100 µM (inactive)
2 | O=C(CCC(=O)Nc1ccc(Cl)cc1)CC(=O)c1ccc2ccccc2c1 | > 100 µM (inactive) | > 100 µM (inactive) | > 100 µM (inactive) | > 100 µM (inactive) | > 100 µM (inactive) | > 100 µM (inactive) | > 100 µM (inactive) | > 100 µM (inactive) | > 100 µM (inactive) | > 100 µM (inactive) | > 100 µM (inactive) | > 100 µM (inactive) | > 100 µM (inactive) | > 100 µM (inactive) | > 100 µM (inactive) | > 100 µM (inactive)
3 | C1OC1CN1CCN(CC2CO2)CC1 (centres undefined) | > 100 µM (inactive) | 44.1 µM (inactive) | 80.9 µM (inactive) | > 100 µM (inactive) | 35.3 µM (inactive) | 12.4 µM (inactive) | > 100 µM (inactive) | 3.28 µM (inactive) | 26.7 µM (inactive) | 2.49 µM (inactive) | > 100 µM (inactive) | > 100 µM (inactive) | > 100 µM (inactive) | 42 µM (inactive) | > 100 µM (inactive) | 38.2 µM (inactive)
4 | CC(C)(C)C1=CC(=C2C(=O)C(=O)c3ccccc3C2=O)C=C(C(C)(C)C)C1=O | 35.5 µM (inactive) | 37.1 µM (inactive) | 28.8 µM (inactive) | > 100 µM (inactive) | 34.5 µM (inactive) | 83.9 µM (inactive) |  |  | 52.1 µM (inactive) | 36.5 µM (inactive) | < 0.01 µM (active) | 84.9 µM (inactive) | 42.1 µM (inactive) | > 100 µM (inactive) | > 100 µM (inactive) | > 100 µM (inactive)
5 | Cc1cccc(C)c1N1C(=O)C(=O)C(c2nc3ccccc3s2)/C(=N\N)C1=O (centres undefined) | 47 µM (inactive) | > 100 µM (inactive) | > 100 µM (inactive) | > 100 µM (inactive) | > 100 µM (inactive) | 62.1 µM (inactive) | > 100 µM (inactive) | 30.3 µM (inactive) | > 100 µM (inactive) |  | > 100 µM (inactive) | > 100 µM (inactive) | > 100 µM (inactive) | > 100 µM (inactive) | > 100 µM (inactive) | > 100 µM (inactive)
6 | CCOC(=O)C(OCC1CC=CCC1)Sc1ccccc1 (centres undefined) | > 100 µM (inactive) | > 100 µM (inactive) | > 100 µM (inactive) | > 100 µM (inactive) | > 100 µM (inactive) | > 100 µM (inactive) |  |  | > 100 µM (inactive) | > 100 µM (inactive) | > 100 µM (inactive) | > 100 µM (inactive) | > 100 µM (inactive) | > 100 µM (inactive) | > 100 µM (inactive) | > 100 µM (inactive)
7 | CC(C)C(=O)N[C@@H](C)C(=O)N(Cc1ccc2ccccc2c1)N=O | > 100 µM (inactive) | 46 µM (inactive) |  | > 100 µM (inactive) | > 100 µM (inactive) | > 100 µM (inactive) | 54.7 µM (inactive) | 39.4 µM (inactive) | 40.5 µM (inactive) | 61.4 µM (inactive) | 58.2 µM (inactive) | > 100 µM (inactive) | > 100 µM (inactive) | 48.6 µM (inactive) | > 100 µM (inactive) | > 100 µM (inactive)
8 | C/C(=N\NC(N)=S)c1ccc(C)cc1C | 8.41 µM (inactive) | > 100 µM (inactive) | > 100 µM (inactive) | 28.6 µM (inactive) | > 100 µM (inactive) | > 100 µM (inactive) | 84.5 µM (inactive) | 41.8 µM (inactive) | > 100 µM (inactive) | > 100 µM (inactive) | > 100 µM (inactive) | > 100 µM (inactive) | 55.8 µM (inactive) | > 100 µM (inactive) |  | 47.5 µM (inactive)
9 | COC(=O)C(Cc1nc2ccc(Cl)cc2nc1O)/C(=N\N)C(=O)Nc1cc(C)c(Cl)cc1S(=O)(=O)O (centres undefined) | > 100 µM (inactive) | > 100 µM (inactive) | 24.3 µM (inactive) | > 100 µM (inactive) | > 100 µM (inactive) | > 100 µM (inactive) | > 100 µM (inactive) | > 100 µM (inactive) | > 100 µM (inactive) | 43.1 µM (inactive) | 70.3 µM (inactive) |  | > 100 µM (inactive) | > 100 µM (inactive) | > 100 µM (inactive) | 
10 | C#Cc1ccccc1N1C(=O)C=CC1=O | > 100 µM (inactive) |  |  | > 100 µM (inactive) | > 100 µM (inactive) | > 100 µM (inactive) | > 100 µM (inactive) | > 100 µM (inactive) | > 100 µM (inactive) | > 100 µM (inactive) | > 100 µM (inactive) | > 100 µM (inactive) | > 100 µM (inactive) | > 100 µM (inactive) | > 100 µM (inactive) | > 100 µM (inactive)
11 | O=C1C=C2CCCC2C(C(=O)O)(C(=O)O)C1 (centres undefined) | > 100 µM (inactive) | > 100 µM (inactive) | > 100 µM (inactive) | > 100 µM (inactive) | > 100 µM (inactive) |  | > 100 µM (inactive) | > 100 µM (inactive) | > 100 µM (inactive) | > 100 µM (inactive) | > 100 µM (inactive) | > 100 µM (inactive) | > 100 µM (inactive) | > 100 µM (inactive) | > 100 µM (inactive) | > 100 µM (inactive)
12 | COC1[C@H](NC(=O)OC(C)(C)C)C(=O)N1Cc1ccccc1 (some centres undefined) | > 100 µM (inactive) | > 100 µM (inactive) | 74.6 µM (inactive) | > 100 µM (inactive) | > 100 µM (inactive) | > 100 µM (inactive) | > 100 µM (inactive) | > 100 µM (inactive) |  | > 100 µM (inactive) | 9.53 µM (inactive) | > 100 µM (inactive) | > 100 µM (inactive) | > 100 µM (inactive) | > 100 µM (inactive) | > 100 µM (inactive)
13 | Cc1nc2cc(N)c(F)cc2[nH]1 | > 100 µM (inactive) | > 100 µM (inactive) | > 100 µM (inactive) | > 100 µM (inactive) | > 100 µM (inactive) | > 100 µM (inactive) | > 100 µM (inactive) | > 100 µM (inactive) | > 100 µM (inactive) | > 100 µM (inactive) | > 100 µM (inactive) | > 100 µM (inactive) | > 100 µM (inactive) | > 100 µM (inactive) | > 100 µM (inactive) | 
14 | O=C1C=C(O)C(=Cc2c(O)cc(O)cc2O)C(O)=C1 | > 100 µM (inactive) | > 100 µM (inactive) | > 100 µM (inactive) | > 100 µM (inactive) | > 100 µM (inactive) |  | > 100 µM (inactive) | > 100 µM (inactive) | > 100 µM (inactive) | > 100 µM (inactive) | > 100 µM (inactive) | > 100 µM (inactive) | > 100 µM (inactive) | > 100 µM (inactive) |  | > 100 µM (inactive)
15 | Cc1ccccc1Cn1nc2ccccc2cc1=O | > 100 µM (inactive) | > 100 µM (inactive) | > 100 µM (inactive) | > 100 µM (inactive) | > 100 µM (inactive) | > 100 µM (inactive) | > 100 µM (inactive) |  | > 100 µM (inactive) | > 100 µM (inactive) | > 100 µM (inactive) | > 100 µM (inactive) | > 100 µM (inactive) | > 100 µM (inactive) | > 100 µM (inactive) | 22.1 µM (inactive)
16 | CC(C)=CC(=O)CC(=O)C(=O)NCCNC(=O)C(=O)CC(=O)C=C(C)C | > 50 µM (inactive) | > 50 µM (inactive) | > 50 µM (inactive) | > 50 µM (inactive) | > 50 µM (inactive) | > 50 µM (inactive) | > 50 µM (inactive) |  | > 50 µM (inactive) |  | > 50 µM (inactive) | > 50 µM (inactive) | > 50 µM (inactive) | > 50 µM (inactive) | > 50 µM (inactive) | > 50 µM (inactive)
17 | CCCC(=O)C(CC)/C(CCC(=O)N(Cc1ccccc1)Cc1ccccc1)=N/NC(=O)C[N+](C)(C)C (centres undefined) | > 100 µM (inactive) |  | > 100 µM (inactive) | > 100 µM (inactive) | > 100 µM (inactive) | > 100 µM (inactive) | > 100 µM (inactive) | > 100 µM (inactive) | > 100 µM (inactive) | > 100 µM (inactive) | > 100 µM (inactive) |  | > 100 µM (inactive) | > 100 µM (inactive) | > 100 µM (inactive) | > 100 µM (inactive)
18 | O=C(Nc1nc2ncn(CCO)c2c(=S)[nH]1)c1ccccc1 | > 100 µM (inactive) | > 100 µM (inactive) | > 100 µM (inactive) | > 100 µM (inactive) | > 100 µM (inactive) | > 100 µM (inactive) | > 100 µM (inactive) |  | > 100 µM (inactive) | > 100 µM (inactive) | > 100 µM (inactive) | > 100 µM (inactive) | > 100 µM (inactive) | > 100 µM (inactive) |  | > 100 µM (inactive)
19 | C/C(=C1/CCCC2(N=NCC2c2ccccc2)C1=O)c1ccccc1 (centres undefined) | 28.3 µM (inactive) | 32.8 µM (inactive) | 24.2 µM (inactive) | 20.5 µM (inactive) | 46.7 µM (inactive) | 31.8 µM (inactive) | 30.7 µM (inactive) | 14.4 µM (inactive) |  | 19.6 µM (inactive) |  | 42.7 µM (inactive) | 16.5 µM (inactive) | 30.9 µM (inactive) | 26.9 µM (inactive) | 30.3 µM (inactive)
